Tests used:
[1] = tested on: Desulfovibrio alaskensis 14563; assay: H2S and Log (Growth) efficacy against SRB, 96-Well Plate Method; type: cell-based
Experimental: A lyophilized Desulfovibrio alaskensis 14563, Desulfovibrio longus 51456, and Desulfovibrio gabonensis 700201 pure cultures received from ATCC were resuspended individually in 500 ul of MB 1250. Aseptically, the content was transferred to a 5-mL tube of MB1250 medium. The cultures were incubated in an anaerobic chamber at 30° C. for 72 hrs. Subsequently, an individual stock culture with a final concentration of 25% glycerol were prepared by adding equal volumes of culture and 50% glycerol. 1 ml of the cultures were then transferred to 2-ml cryogenic vials and stored at −80° C. The purity of the stock cultures was evaluated through PCR, by amplifying the 16S rDNA region, and thus, it was verified that the original ATCC sample was a pure culture. 48-hour cultures of ATCC Desulfovibrio alaskensis 14563, Desulfovibrio longus 51456, and Desulfovibrio gabonensis 700201 were prepared in an anaerobic chamber. Each culture was prepared as a 1:10 culture by taking 1 milliliter (mL) of a pure culture and inoculating 9 milliliters (mL) of fresh MB1250 media. The Desulfovibrio alaskensis 14563 and Desulfovibrio gabonensis 700201 were all grown at 30° C. and the Desulfovibrio longus 51456 culture was grown at 35° C.
After the 48-hour incubation, 600 microliters (μL) were taken from each culture and optical density (OD) was measured using a Thermofisher Spectronic 200 Spectrophotometer at 600 nm. Each culture was diluted to 0.05 OD600 in fresh MB1250 media and added to the 96 well plates. Edge wells were not used due to their inherent variability and evaporation of the media. Each of the components were added at their respective concentrations for a final volume of 500 μL per well. In Table 3, 6 and 7, the concentrations of the compound used for the experiments are listed. Each experiment was done with at least three replicates for different treatments and non-treatment controls. […] Plates were then sealed with a titer-top and placed into anaerobic boxes and incubated in an anaerobic incubator at 30° C.
At each time point, sulfide samples were taken, and enumeration plates were made. Enumeration plates were made to determine the log growth in each dosed sample. For this process, enumeration plates were prepared by adding 180 μL fresh media MB1250 containing 0.01 wt % ferrous ammonium sulfate. 20 μL was taken from each well of the challenge plates and transferred to the enumeration plates using a 20-200 μL multichannel pipette. Enumeration plates were mixed three times using the multichannel pipette and serial diluted down the plate tenfold (20 μL into 180 μL). This serial dilution process was repeated for all challenge plate rows giving a total of 6 enumeration plates.
After 7 days these enumeration plates were read. The ferrous ammonium sulfate in each plate would be converted to iron sulfide, changing wells with SRB growth from clear to black. By counting the number of black wells in a row, the log growth from the original well in the challenge plate can be determined.
To determine hydrogen sulfide production in each sample, sulfide samples were also taken from each challenge plate. From each well, 9 μL were taken and added to 60 μL of 2% zinc acetate with 0.02% acetic acid. Then, 180 μL of milliQ water was added. 60 μL of stock solution 1 containing 64% sulfuric acid, <1% Dimethyl-4-phenylenediamine (DMPD), water to 100% was added to each well on the plates. This was followed by 3 μL of stock solution 3 containing 50% Iron (III) chloride. All chemicals are ordered from Fisher Scientific and used as received. These were mixed three times and read after 15 minutes. The plates were read at 670 nm using a Biotek microplate reader. Absorbance readings were converted to mM using a standard curve and this was converted to parts per million using the molar mass of sulfur. The standard curves were made using sodium sulfide nonahydrate solutions to give final solutions of 0, 0.125, 0.25 0.5, 1.0, and 1.5 ppm.

[2] = tested on: sulfate reducing bacteria; assay: Efficacy in inhibiting H2S production from sulfate reducing bacteria; type: cell-based; details: anaerobic conditions
Experimental: To understand the hydrogen sulfide inhibition efficacy of the N-hydroxycarboxamide compounds of the present invention, several compounds were tested. Some compounds that can be used in this H2S inhibiting composition are disclosed in Table 2. For the testing procedures, the compounds were dissolved in DMSO, resulting in a stock solution of about 8000-100000 ppm, which was subsequently diluted in 96-well plates or 10 mL serum vials containing media and selected culture to give varying concentrations from 0.09 to 1000 ppm of the compounds in final solution for efficacy testing.
Strains of commonly found bacteria were used for testing the efficacy of the compounds, viz. Desulfovibrio alaskensis, Desulfovibrio longus and Desulfovibrio gabonensis. Media for the cultures was also prepared by using a standard method. The cultures were aseptically used and incubated under anaerobic conditions. Two well established methods were used for testing various compounds:
The compounds C1, C12, C14, C15 and C16 were tested individually to understand each of their efficacies in inhibiting the H2S production from sulfate reducing bacteria, under standard temperature and pressure conditions. The efficacy of compounds C14 and C15 against hydrogen sulfide production are disclosed in Example 1, Tables 6 and 7.

O=C(CN1C(=O)c2cccc3cccc(c23)C1=O)NO [C1] was tested, and the H2S ([1]; 3 days, 6.4 PPM) was 15.5 PPM, the “Log (Growth)” value ([1]; 3 days, 6.4 PPM) was 2.7 and the H2S ([1]; 3 days, 12.8 PPM) was 13.5 PPM. For the same molecule, the “Log (Growth)” value ([1]; 3 days, 12.8 PPM) was 2.0, the H2S ([1]; 3 days, 25.6 PPM) was 15.1 PPM and the “Log (Growth)” value ([1]; 3 days, 25.6 PPM) was 0.0. The H2S ([1]; 3 days, 51.3 PPM) was 15.4 PPM, the “Log (Growth)” value ([1]; 3 days, 51.3 PPM) was 0.0 and the H2S ([1]; 3 days, 102.5 PPM) was 13.6 PPM. For the same molecule, the “Log (Growth)” value ([1]; 3 days, 102.5 PPM) was 0.3, the H2S ([1]; 3 days, 205.0 PPM) was 12.7 PPM and the “Log (Growth)” value ([1]; 3 days, 205.0 PPM) was 0.3. For the same molecule, the H2S ([1]; 6 days, 6.4 PPM) was 18.1 PPM, the “Log (Growth)” value ([1]; 6 days, 6.4 PPM) was 3.3 and the H2S ([1]; 6 days, 12.8 PPM) was 23.5 PPM. The “Log (Growth)” value ([1]; 6 days, 12.8 PPM) was 2.7, the H2S ([1]; 6 days, 25.6 PPM) was 8.8 PPM and the “Log (Growth)” value ([1]; 6 days, 25.6 PPM) was 1.0. The H2S ([1]; 6 days, 51.3 PPM) was 8.3 PPM, the “Log (Growth)” value ([1]; 6 days, 51.3 PPM) was 0.0 and the H2S ([1]; 6 days, 102.5 PPM) was 8.7 PPM. For the same molecule, the “Log (Growth)” value ([1]; 6 days, 102.5 PPM) was 0.0, the H2S ([1]; 6 days, 205.0 PPM) was 9.0 PPM and the “Log (Growth)” value ([1]; 6 days, 205.0 PPM) was 0.0. The “efficacy for inhibiting hydrogen sulfide production” value [2] was “highest efficacy”.

Reference: patent US20230183640A1, “METABOLIC INHIBITORS WITH EFFICACY FOR INHIBITING SULFIDE PRODUCTION IN HARSH ENVIRONMENTS” (MC (US) 3 LLC, priority 2020, published 2023)
